Ki and EC50 data for 13 compounds are collected here from patent US20250304559A1, “Ether-Linked Antiviral Compounds” (Pfizer Inc., priority 2021, published 2025).

Structures are written as SMILES. Where two headings read alike, the source gives them in different places.

Experiment [1] has as its target T1, SARS-CoV-2 3CL protease (Severe acute respiratory syndrome coronavirus 2, UniProt P0DTD1).
T1 construct: measures the activity of full-length SARS-CoV-2 3CL protease
Description: SARS-CoV-2 Coronavirus 3C Protease FRET Assay. The note with it: Morrison equation fit, 15 nM enzyme, 25 μM peptide substrate. The experiment is classed as biochemical.

Experiment [2] deals with SARS-CoV-2 (USA_WA1/2020). In words: Antiviral Activity from SARS-CoV-2 Infection (cytopathic effect, Cell Titer-Glo). The following applies: VeroE6 cells enriched for hACE2, MOI 0.002, 3-day incubation, tested alone or with P-gp inhibitor CP-100356 2 μM (table does not say which), read-out: Geometric Mean EC50. The experiment is classed as cell-based.
Setting [3] is: Examples 14-78 and 114 (second head of Table 2), read-out: Geometric Mean Ki (nM) IC50.
The mark [4] stands for this setting: Severe acute respiratory syndrome coronavirus 2, Vero C1008, 72 h.
Where [5] appears, read: Examples 1-13, 60 minutes at 23° C., read-out: Geometric Mean Ki.

Usually Ki stands for a dissociation constant, usually derived from enzyme kinetics or from competition with a known ligand. By EC50 is commonly meant the midpoint of the concentration-response curve. Turning to `CC(C)(C)[C@H](NS(=O)(=O)C(F)(F)F)C(=O)N1C[C@H]2[C@@H]([C@H]1C(=O)N[C@@H](C[C@@H]1CC(O)NC1=O)C(=O)COc1ccc(F)cc1F)C2(C)C` (stereo partly drawn) [Example 38, (1R,2S,5S)-N-{(2S)-4-(2,4-difluorophenoxy)-1-[(3R)-5-hydroxy-2-oxopyrrolidin-3-yl]-3-oxobutan-2-yl}-6,6-dimethyl-3-[3-methyl-N-(trifluoromethanesulfonyl)-L-valyl]-3-azabicyclo[3.1.0]hexane-2-carboxamide], in experiment [1] (setting [3]), the Ki stood at 4.12 nM. For the same compound, the EC50 in experiment [2] (setting [4]) was 1390 nM.

Consider `CC(C)[C@H](NS(C)(=O)=O)C(=O)N1CCC2(CC2)C[C@H]1C(=O)N[C@@H](C[C@@H]1CCNC1=O)C(=O)COc1ccc(F)cc1F` (single isomer, unassigned) [Example 66, (5R*)-N-{(2S)-4-(2,4-difluorophenoxy)-3-oxo-1-[(3S)-2-oxopyrrolidin-3-yl]butan-2-yl}-6-[N-(methanesulfonyl)-L-valyl]-6-azaspiro[2.5]octane-5-carboxamide, DIAST-2], for which, in experiment [1] (setting [3]), the Ki is 15.7 nM. Further, the EC50 in experiment [2] is 669 nM.

For the compound `CC(C)(C)[C@H](NS(C)(=O)=O)C(=O)N1C[C@H]2[C@@H]([C@H]1C(=O)N[C@@H](C[C@@H]1CCNC1=O)C(=O)COc1ccc(F)cc1F)C2(C)C` [Example 13, (1R,2S,5S)-N-{(2S)-4-(2,4-difluorophenoxy)-3-oxo-1-[(3S)-2-oxopyrrolidin-3-yl]butan-2-yl}-6,6-dimethyl-3-[3-methyl-N-(methylsulfonyl)-L-valyl]-3-azabicyclo[3.1.0]hexane-2-carboxamide], the inhibitory constant (Ki) in experiment [1] (setting [5]) was 1.78 nM. Further, the EC50 in experiment [2] (setting [4]) came to 98.6 nM.

Turning to `CC(C)C[C@@H](C(=O)N1C[C@H]2[C@@H]([C@H]1C(=O)N[C@@H](C[C@@H]1CCNC1=O)C(=O)COc1cc(C(F)(F)F)nn1C)C2(C)C)N(C)C(C)C` (single isomer, unassigned) [Example 73, (1R,2S,5S)-6,6-dimethyl-3-[N-methyl-N-(propan-2-yl)-L-leucyl]-N-{(2R*)-4-{[1-methyl-3-(trifluoromethyl)-1H-pyrazol-5-yl]oxy}-3-oxo-1-[(3S)-2-oxopyrrolidin-3-yl]butan-2-yl}-3-azabicyclo[3.1.0]hexane-2-carboxamide, DIAST-2], in experiment [1] (setting [3]), the Ki amounted to 962 nM. In addition, the concentration for a half-maximal effect (EC50) in experiment [2] stood at 140 nM.

As for `CC(C)[C@H](NC(=O)C(F)(F)F)C(=O)N1C[C@H]2[C@@H]([C@H]1C(=O)N[C@@H](C[C@@H]1CCNC1=O)C(=O)COc1ccccc1)C2(C)C` [Example 23, (1R,2S,5S)-6,6-dimethyl-N-{(2S)-3-oxo-1-[(3S)-2-oxopyrrolidin-3-yl]-4-phenoxybutan-2-yl}-3-[N-(trifluoroacetyl)-L-valyl]-3-azabicyclo[3.1.0]hexane-2-carboxamide], the inhibition constant Ki in experiment [1] (setting [3]) is 1.78 nM. Further, the half-maximal effective concentration (EC50) in experiment [2] (setting [4]) came out at 32 nM.

As for `CC(C)(C)[C@H](NS(=O)(=O)C(F)(F)F)C(=O)N1C[C@H]2[C@@H]([C@H]1C(=O)N[C@@H](C[C@@H]1CC(=O)NC1=O)C(=O)COc1ccc(F)cc1F)C2(C)C` [Example 44, (1R,2S,5S)-N-{(2S)-4-(2,4-difluorophenoxy)-1-[(3R)-2,5-dioxopyrrolidin-3-yl]-3-oxobutan-2-yl}-6,6-dimethyl-3-[3-methyl-N-(trifluoromethanesulfonyl)-L-valyl]-3-azabicyclo[3.1.0]hexane-2-carboxamide], in experiment [1] (setting [3]), the Ki is 8.95 nM. In experiment [2] (setting [4]), the 50% effective concentration (EC50) amounted to 408 nM.

On to `COC(=O)N[C@H](C(=O)N1C[C@H]2[C@@H]([C@H]1C(=O)N[C@@H](C[C@@H]1CCNC1=O)C(=O)COc1ccc(F)cc1F)C2(C)C)C(C)(C)C` [Example 24, methyl {(2S)-1-[(1R,2S,5S)-2-({(2S)-4-(2,4-difluorophenoxy)-3-oxo-1-[(3S)-2-oxopyrrolidin-3-yl]butan-2-yl}carbamoyl)-6,6-dimethyl-3-azabicyclo[3.1.0]hexan-3-yl]-3,3-dimethyl-1-oxobutan-2-yl}carbamate], for which the inhibition constant (Ki) in experiment [1] (setting [3]) was 1.41 nM. The EC50 in experiment [2] (setting [4]) came out at 17 nM.

For `CC(C)[C@H](NC(=O)C(F)(F)F)C(=O)N1C[C@H]2[C@@H]([C@H]1C(=O)N[C@@H](C[C@@H]1CCNC1=O)C(=O)COc1ccc(F)c(F)c1)C2(C)C` [Example 48, (1R,2S,5S)-N-{(2S)-4-(3,4-difluorophenoxy)-3-oxo-1-[(3S)-2-oxopyrrolidin-3-yl]butan-2-yl}-6,6-dimethyl-3-[N-(trifluoroacetyl)-L-valyl]-3-azabicyclo[3.1.0]hexane-2-carboxamide], the inhibitory constant (Ki) in experiment [1] (setting [3]) stood at 7.87 nM. The EC50 in experiment [2] (setting [4]) is 44.3 nM.

Regarding `CC(C)[C@H](NS(=O)(=O)C(F)(F)F)C(=O)N1C[C@H]2[C@@H]([C@H]1C(=O)N[C@@H](C[C@@H]1CCNC1=O)C(=O)COc1cccc(Cl)c1)C2(C)C` [Example 40, (1R,2S,5S)-N-{(2S)-4-(3-chlorophenoxy)-3-oxo-1-[(3S)-2-oxopyrrolidin-3-yl]butan-2-yl}-6,6-dimethyl-3-[N-(trifluoromethanesulfonyl)-L-valyl]-3-azabicyclo[3.1.0]hexane-2-carboxamide], in experiment [1] (setting [3]), the inhibition constant (Ki) stood at 4.22 nM. In addition, in experiment [2] (setting [4]), the EC50 is 112 nM.

For `CC(C)[C@H](NC(=O)C(F)(F)F)C(=O)N1CC[C@@H](C)C[C@H]1C(=O)N[C@@H](C[C@@H]1CCNC1=O)C(=O)COc1ccc(F)cc1F` (relative stereo) [Example 69, (2R*,4S*)-N-{(2S)-4-(2,4-difluorophenoxy)-3-oxo-1-[(3S)-2-oxopyrrolidin-3-yl]butan-2-yl}-4-methyl-1-[N-(trifluoroacetyl)-L-valyl]piperidine-2-carboxamide], the inhibition constant Ki in experiment [1] (setting [3]) is 219 nM. Further, in experiment [2] (setting [4]), the concentration giving a half-maximal response (EC50) worked out at 562 nM.

For the compound `CC(C)[C@H](NC(=O)C(F)(F)F)C(=O)N1C[C@H]2[C@@H]([C@H]1C(=O)N[C@@H](C[C@@H]1CCNC1=O)C(=O)COc1cnsn1)C2(C)C` [Example 62, (1R,2S,5S)-6,6-dimethyl-N-{(2S)-3-oxo-1-[(3S)-2-oxopyrrolidin-3-yl]-4-[(1,2,5-thiadiazol-3-yl)oxy]butan-2-yl}-3-[N-(trifluoroacetyl)-L-valyl]-3-azabicyclo[3.1.0]hexane-2-carboxamide], in experiment [1] (setting [3]), the Ki amounted to 55.7 nM. In experiment [2] (setting [4]), the 50% effective concentration (EC50) turned out to be 1870 nM.

Consider `CC(C)[C@H](NC(=O)C(F)(F)F)C(=O)N1C[C@H]2[C@@H]([C@H]1C(=O)N[C@@H](C[C@@H]1CCNC1=O)C(=O)COc1nnc3c(F)cccn13)C2(C)C` [Example 75, (1R,2S,5S)-N-{(2S)-4-[(8-fluoro[1,2,4]triazolo[4,3-a]pyridin-3-yl)oxy]-3-oxo-1-[(3S)-2-oxopyrrolidin-3-yl]butan-2-yl}-6,6-dimethyl-3-[N-(trifluoroacetyl)-L-valyl]-3-azabicyclo[3.1.0]hexane-2-carboxamide], for which, in experiment [1] (setting [3]), the inhibitory constant (Ki) was determined as 2900 nM. In addition, the concentration giving a half-maximal response (EC50) in experiment [2] (setting [4]) was greater than 76800 nM.

On to `CC(C)(C)[C@H](NC(=O)C(F)(F)F)C(=O)N1C[C@H]2[C@@H]([C@H]1C(=O)N[C@@H](C[C@@H]1CCNC1=O)C(=O)COc1cccc(C(F)(F)F)c1)C2(C)C` [Example 12, (1R,2S,5S)-6,6-dimethyl-3-[3-methyl-N-(trifluoroacetyl)-L-valyl]-N-{(2S)-3-oxo-1-[(3S)-2-oxopyrrolidin-3-yl]-4-[3-(trifluoromethyl)phenoxy]butan-2-yl}-3-azabicyclo[3.1.0]hexane-2-carboxamide], for which, in experiment [1] (setting [5]), the inhibitory constant (Ki) worked out at 6.38 nM. Further, in experiment [2] (setting [4]), the EC50 amounted to 51.2 nM.
